Patent US20050090529A1, “3,5 Disubstituted indazole compounds with nitrogen-bearing 5-membered heterocycles, pharmaceutical compositions, and methods for mediating or inhibiting cell proliferation” (PFIZER INC, priority 2003, published 2005)

test system: Cyclin-dependent kinase; experiment: Cyclin-dependent kinase inhibition, % inhibition at 10 nM (library Examples 99-270); assay type: biochemical; details: 10 nM compound
Protocol: Cyclin-dependent kinase activity was measured by quantifying the enzyme-catalyzed, time-dependent incorporation of radioactive phosphate from [^32P]ATP or [^33P]ATP into a protein substrate. Unless noted otherwise, assays were performed in 96-well plates in a total volume of 50 μL, in the presence of 10 mM HEPES (N-[2-hydroxyethyl]piperazine-N′-[2-ethanesulfonic acid]) (pH 7.4), 10 mM MgCl2, 25 μM adenosine triphosphate (ATP), 1 mg/mL ovalbumin, 5 μg/mL leupeptin, 1 mM dithiothreitol, 10 mM beta-glycerophosphate, 0.1 mM sodium vanadate, 1 mM sodium fluoride, 2.5 mM ethylene glycol-bis(β-aminoethyl ethKer)-N,N,N′N′-tetraacetic acid (EGTA), 2% (v/v) dimethylsulfoxide, and 0.03-0.4 μCi [^32/33P]ATP per reaction. Reactions were initiated with enzyme, incubated at 30° C., and terminated after 20 minutes by the addition of ethylenediaminetetraacetic acid (EDTA) to 250 mM. The phosphorylated substrate was then captured on a nitrocellulose or phosphocellulose membrane using a 96-well filtration manifold, and unincorporated radioactivity was removed by repeated washing with 0.85% phosphoric acid. Radioactivity was quantified by exposing the dried membranes to a phosphorimager.
Results of assays performed on compounds, which include the specific examples described above are provided in Examples 99-274 above, and in Table 1 below. Unless indicated otherwise in a particular entry, the units and assays used are as indicated in the applicable column of the table.

% Inhib @ 10 nM [%] | SMILES
73 | CCNCc1cncc(-c2ccc3[nH]nc(-c4ncc(C(=O)NCC5CCCCC5)[nH]4)c3c2)c1C [Example 166, N-(cyclohexylmethyl)-2-(5-{5-[(ethylamino)methyl]-4-methylpyridin-3-yl}-1H-indazol-3-yl)-1H-imidazole-5-carboxamide]
28 | CCNCc1cncc(-c2ccc3[nH]nc(-c4ncc(C(=O)NCCc5cc(OC)c(O)c(OC)c5)[nH]4)c3c2)c1C [Example 167]
37 | CCNCc1cncc(-c2ccc3[nH]nc(-c4ncc(C(=O)N5CCN(CCOC)CC5)[nH]4)c3c2)c1C [Example 169, ethyl({5-[3-(5-{[4-(2-methoxyethyl)piperazin-1-yl]carbonyl}-1H-imidazol-2-yl)-1H-indazol-5-yl]-4-methylpyridin-3-yl}methyl)amine]
29 | CCNCc1cncc(-c2ccc3[nH]nc(-c4ncc(C(=O)N5CCC(CNC(=O)C(F)(F)F)CC5)[nH]4)c3c2)c1C [Example 170, N-[(1-{[2-(5-{5-[(ethylamino)methyl]-4-methylpyridin-3yl}-1H-indazol-3-yl)-1H-imidazol-5-yl]carbonyl}piperidin-4-yl)methyl]-2,2,2-trifluoroacetamide]
65 | CCNCc1cncc(-c2ccc3[nH]nc(-c4ncc(C(=O)N5CCC(C(=O)c6ccccc6)CC5)[nH]4)c3c2)c1C [Example 171, (1-{[2-(5-{5[(ethylamino)methyl]-4-methylpyridin-3-yl}-1H-indazol-3-yl)-1H-imidazol-5-yl]carbonyl}piperidin-4-yl)(phenyl)methanone]
36 | CCNCc1cncc(-c2ccc3[nH]nc(-c4ncc(C(=O)NC(CO)CCSC)[nH]4)c3c2)c1C (stereo not drawn) [Example 172]
45 | CCNCc1cncc(-c2ccc3[nH]nc(-c4ncc(C(=O)N[C@H](CO)Cc5ccc(O)cc5)[nH]4)c3c2)c1C [Example 173]
41 | CCNCc1cncc(-c2ccc3[nH]nc(-c4ncc(C(=O)NCCCSC)[nH]4)c3c2)c1C [Example 174, 2-(5-{5-[(ethylamino)methyl]-4-methylpyridin-3-yl}-1H-indazol-3-yl)-N-[3-(methylthio)propyl]1H-imidazole-5-carboxamide]
68 | CCNCc1cncc(-c2ccc3[nH]nc(-c4ncc(C(=O)N(CC)CCOC)[nH]4)c3c2)c1C [Example 175, N-ethyl-2-(5-{5-[(ethylamino)methyl]-4-methylpyridin-3-yl}-1H-indazol-3-yl)-N-(2-methoxyethyl)-1H-imidazole-5-carboxamide]
59 | CCNCc1cncc(-c2ccc3[nH]nc(-c4ncc(C(=O)N[C@H](C(=O)NC)[C@@H](C)O)[nH]4)c3c2)c1C [Example 176, 2-(5-{5-[(ethylamino)methyl]-4-methylpyridin-3-yl}-1H-indazol-3-yl)-N-{(1S,2R)-2-hydroxy-1-[(methylamino)carbonyl]propyl}-1H-imidazole-5-carboxamide]
63 | CCNCc1cncc(-c2ccc3[nH]nc(-c4ncc(C(=O)N5CCC(CO)CC5)[nH]4)c3c2)c1C [Example 177, (1-{[2-(5-{5-[(ethylamino)methyl]-4-methylpyridin-3-yl}-1H-indazol-3-yl)-1H-imidazol-5-yl]carbonyl}piperidin-4-yl)methanol]
73 | CCNCc1cncc(-c2ccc3[nH]nc(-c4ncc(C(=O)N(C)CC)[nH]4)c3c2)c1C [Example 178, N-ethyl-2-(5-{5-[(ethylamino)methyl]-4-methylpyridin-3-yl}-1H-indazol-3-yl)-N-methyl-1H-imidazole-5-carboxamrde]
53 | CCNCc1cncc(-c2ccc3[nH]nc(-c4ncc(C(=O)N5CCCN(C(C)=O)CC5)[nH]4)c3c2)c1C [Example 179, {[5-(3-(5-[(4-acetyl-1,4-diazepan-1-yl)carbonyl]-1H-imidazol-2-yl]-1H-indazol-5-yl)-4-methylpyridin-3-yl]methyl}ethylamine]
22 | CCNCc1cncc(-c2ccc3[nH]nc(-c4ncc(C(=O)N5CCN(CCCN6CCOCC6)CC5)[nH]4)c3c2)c1C [Example 180]
57 | CCNCc1cncc(-c2ccc3[nH]nc(-c4ncc(C(=O)N5CCN(Cc6ccc(OC)cc6)CC5)[nH]4)c3c2)c1C [Example 181, ethyl({5-[3-(5-{[4-(4-methoxybenzyl)piperazin-1-yl]carbonyl}1H-imidazol-2-yl)-1H-indazol-5-yl]-4-methylpyridin-3-yl}methyl)amine]
40 | CCNCc1cncc(-c2ccc3[nH]nc(-c4ncc(C(=O)N5CCN(CC(=O)N(C)C)CC5)[nH]4)c3c2)c1C [Example 182]
42 | CCNCc1cncc(-c2ccc3[nH]nc(-c4ncc(C(=O)N5CCCC(c6nc7ccccc7[nH]6)C5)[nH]4)c3c2)c1C (stereo not drawn) [Example 183, ({5-[3-(5-{[3-(1H-benzimidazol-2-yl)piperidin-1-yl]carbonyl}-1H-imidazol-2-yl)-1H-indazol-5-yl]-4-methylpyridin-3-yl}methyl)ethylamine]
21 | CCNCc1cncc(-c2ccc3[nH]nc(-c4ncc(C(=O)NCC5CCNCC5)[nH]4)c3c2)c1C [Example 184]
52 | CCNCc1cncc(-c2ccc3[nH]nc(-c4ncc(C(=O)N[C@@H](CO)Cc5c[nH]c6ccccc56)[nH]4)c3c2)c1C [Example 185, 2-(5-{5-[(ethylamino)methyl]-4-methylpyridin-3-yl}-1H-indazol-3-yl)-N-[(1R)-2-hydroxy-1-(1H-indol-3-ylmethyl)ethyl]-1H-imidazole-5-carboxamide]
61 | CCNCc1cncc(-c2ccc3[nH]nc(-c4ncc(C(=O)N5C[C@@H]6C[C@H]5CO6)[nH]4)c3c2)c1C [Example 186, ethyl{[4-methyl-5-(3-{5-[(1S,4S)-2-oxa-5-azabicyclo[2.2.1]hept-5-ylcarbonyl]-1H-imidazol-2-yl)-1H-indazol-5-yl)pyridin-3-yl]methyl}amine]
44 | CCNCc1cncc(-c2ccc3[nH]nc(-c4ncc(C(=O)N5CC6C[C@H]5CN6)[nH]4)c3c2)c1C [Example 187]
41 | CCNCc1cncc(-c2ccc3[nH]nc(-c4ncc(C(=O)NCc5ccc(C(F)(F)F)nc5)[nH]4)c3c2)c1C [Example 188, 2-(5-{5-[(ethylamino)methyl]-4-methylpyridin-3-yl}-1H-indazol-3-yl)-N-{(6-(trifluoromethyl)pyridin-3-yl]methyl}-1H-imidazole-5-carboxamide]
59 | CCNCc1cncc(-c2ccc3[nH]nc(-c4ncc(C(=O)NCCCc5c[nH]cn5)[nH]4)c3c2)c1C [Example 189, 2-(5-{5-[(ethylamino)methyl]-4-methylpyridin-3-yl}-1H-indazol-3-yl)-N-[3-(1H-imidazol-4-yl)propyl]-1H-imidazole-5-carboxamide]
76 | CCNCc1cncc(-c2ccc3[nH]nc(-c4ncc(C(=O)N(C)C)[nH]4)c3c2)c1C [Example 190, 2-(5-{5-[(ethylamino)methyl}-4-methylpyridin-3-yl}-1H-indazol-3-yl)-N,N-dimethyl-1H-imidazole-5-carboxamide]
74 | CCNCc1cncc(-c2ccc3[nH]nc(-c4ncc(C(=O)N5CCC(c6cccc(O)c6)CC5)[nH]4)c3c2)c1C [Example 191, 3-(1-{[2-(5-{5-[(ethylamino)methyl]-4-methylpyridin-3-yl}-1H-indazol-3-yl)-1H-imidazol-5-yl]carbonyl}piperidin-4-yl)phenol]
30 | CCNCc1cncc(-c2ccc3[nH]nc(-c4ncc(C(=O)NCCC5CCN(Cc6ccccc6)CC5)[nH]4)c3c2)c1C [Example 192, N-[2-(1-benzylpiperidin-4-yl)ethyl]-2-(5-{5-[(ethylamino)methyl]-4-methylpyridin-3-yl}-1H-indazol-3-yl)-1H-imidazole-5-carboxamide]
52 | CCNCc1cncc(-c2ccc3[nH]nc(-c4ncc(C(=O)N5C[C@@H]6[C@@H](N)[C@@H]6C5)[nH]4)c3c2)c1C [Example 193]
65 | CCNCc1cncc(-c2ccc3[nH]nc(-c4ncc(C(=O)NCc5ccc(C(=O)OC)cc5)[nH]4)c3c2)c1C [Example 194, methyl-4-[({[2-(5-{5-[(ethylamino)methyl]-4-methylpyridin-3-yl}-1H-indazol-3-yl)-1H-imidazol-5-yl]carbonyl}amino)methyl]benzoate]
32 | CCNCc1cncc(-c2ccc3[nH]nc(-c4ncc(C(=O)N5CCCC5c5cccc6ccccc56)[nH]4)c3c2)c1C (stereo not drawn) [Example 195, ethyl({4-methyl-5-(3-(5-{[2-(1-naphthyl)pyrrolidin-1-yl]carbonyl}-1H-imidazol-2-yl)-1 H-indazol-5-yl]pyridin-3-yl]methyl)amine]
71 | CCNCc1cncc(-c2ccc3[nH]nc(-c4ncc(C(=O)N5CCC(Oc6ccccc6)CC5)[nH]4)c3c2)c1C [Example 196, ethyl{[4-methyl-5-(3-{5-[(4-phenoxypiperidin-1-yl)carbonyl]-1H-imidazol-2-yl]-1H-indazol-5-yl)pyridin-3-yl]methyl}amine]
